The numbers were not newly measured in patent US20090169606A1, “Low Flexural Strength Transdermal Tobacco Alkaloid Patch” (Fertin Pharma, priority 2005, published 2009), which cites them from elsewhere.

The conditions of the data set: pure nicotine placed on the skin of an ordinary human being.

Take `CN1CCCC1c1cccnc1` (stereo not shown) [nicotine]: the lethal dose is reported as 50 mg.
